From patent publication US20220323406A1, “METHODS AND COMPOSITIONS FOR DIFFERENTIATING STEM CELLS” (Massachusetts Institute of Technology, priority 2019, published 2022)

How the values were obtained:
[1] = system: ENR+CD organoids (ISC to Paneth cell differentiation); test: Primary screen: CCh-stimulated lysozyme secretion LYZ.S, 2.5-D 384-well ENR+CD organoid differentiation; format: cell-based, mouse; details: primary screen
Text: (§1) High-throughput screening.

[2] = system: ENR+CD organoids (ISC to Paneth cell differentiation); test: Primary screen: basal (non-stimulated) lysozyme secretion LYZ.NS, 2.5-D 384-well ENR+CD organoid differentiation; format: cell-based, mouse
Text: as §1

ENR+CD organoids = test: Primary screen: ATP (CellTiter-Glo 3D, CTG) cell number/viability, 2.5-D 384-well ENR+CD organoids;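 also: compounds given at plating and again on day 3 over a 6-day differentiation from ENR+CV stem-cell-enriched precursors, ATP measured on day 6, plate median as control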
[3] = primary screen, dose 0.08 uM, FC relative to plate median
[4] = primary screen, dose 0.08 uM, standard z score
[5] = primary screen, dose 0.40 uM, FC relative to plate median
[6] = primary screen, dose 0.40 uM, standard z score
[7] = primary screen, dose 2.00 uM, FC relative to plate median
[8] = primary screen, dose 2.00 uM, standard z score
[9] = primary screen, dose 10.00 uM, FC relative to plate median
[10] = primary screen, dose 10.00 uM, standard z score
[11] = primary screen, standard z score, dose 0.08 uM
[12] = primary screen, standard z score, dose 0.40 uM
[13] = primary screen, standard z score, dose 2.00 uM
[14] = primary screen, standard z score, dose 10.00 uM

Work on `CCOC(=O)c1ccc(N2NC(=O)/C(=C/c3ccc([N+](=O)[O-])o3)C2=O)cc1` [PYR-41] yielded a Dose.FC.LYZ.S ([1]; dose 0.08 uM, FC relative to plate median) of 0.193 log2 fold change, a Dose.FC.LYZ.S ([1]; dose 0.40 uM, FC relative to plate median) of 0.076 log2 fold change and a Dose.FC.LYZ.S ([1]; dose 2.00 uM, FC relative to plate median) of 0.049 log2 fold change. For the same compound, the Dose.FC.LYZ.S ([1]; dose 10.00 uM, FC relative to plate median) was 0.129 log2 fold change, the Dose.FC.LYZ.NS [2, 3] was 0.150 log2 fold change and the Z.LYZ.NS [2, 4] was 1.305. The Dose.FC.LYZ.NS [2, 5] was 0.089 log2 fold change, the Z.LYZ.NS [2, 6] was 0.777 and the Dose.FC.LYZ.NS [2, 7] was 0.065 log2 fold change. For the same compound, the Z.LYZ.NS [2, 8] was 0.568, the Dose.FC.LYZ.NS [2, 9] was 0.099 log2 fold change and the Z.LYZ.NS [2, 10] was 0.861. The Dose.FC.CTG (ENR+CD organoids; [3]) was 0.255 log2 fold change, the Z.CTG (ENR+CD organoids; [4]) was 0.609 and the Dose.FC.CTG (ENR+CD organoids; [5]) was 0.319 log2 fold change. The Z.CTG (ENR+CD organoids; [6]) was 0.762, the Dose.FC.CTG (ENR+CD organoids; [7]) was 0.161 log2 fold change and the Z.CTG (ENR+CD organoids; [8]) was 0.385. For the same compound, the Dose.FC.CTG (ENR+CD organoids; [9]) was 0.096 log2 fold change and the Z.CTG (ENR+CD organoids; [10]) was 0.229.

With `Oc1ccc2ccccc2c1SSc1c(O)ccc2ccccc12` [IPA-3] the “Dose.FC.LYZ.S (log2 fold change)” value ([1]; dose 0.08 uM) was 0.064, the “Dose.FC.LYZ.S (log2 fold change)” value ([1]; dose 0.40 uM) was −0.031 and the “Dose.FC.LYZ.S (log2 fold change)” value ([1]; dose 2.00 uM) was 0.067. For the same compound, the “Dose.FC.LYZ.S (log2 fold change)” value ([1]; dose 10.00 uM) was −0.054, the “Dose.FC.LYZ.NS (log2 fold change)” value ([2]; primary screen, dose 0.08 uM) was 0.004 and the “Z.LYZ.NS (standard z score)” value ([2]; primary screen, dose 0.08 uM) was 0.031. For the same compound, the “Dose.FC.LYZ.NS (log2 fold change)” value ([2]; primary screen, dose 0.40 uM) was 0.003, the “Z.LYZ.NS (standard z score)” value ([2]; primary screen, dose 0.40 uM) was 0.028 and the “Dose.FC.LYZ.NS (log2 fold change)” value ([2]; primary screen, dose 2.00 uM) was −0.001. The “Z.LYZ.NS (standard z score)” value ([2]; primary screen, dose 2.00 uM) was −0.010, the “Dose.FC.LYZ.NS (log2 fold change)” value ([2]; primary screen, dose 10.00 uM) was −0.021 and the “Z.LYZ.NS (standard z score)” value ([2]; primary screen, dose 10.00 uM) was −0.186. For the same compound, the “Dose.FC.CTG (log2 fold change)” value (ENR+CD organoids; primary screen, dose 0.08 uM) was 0.219, the “Z.CTG (standard z score)” value (ENR+CD organoids; primary screen, dose 0.08 uM) was 0.524 and the “Dose.FC.CTG (log2 fold change)” value (ENR+CD organoids; primary screen, dose 0.40 uM) was −0.332. The “Z.CTG (standard z score)” value (ENR+CD organoids; primary screen, dose 0.40 uM) was −0.793, the “Dose.FC.CTG (log2 fold change)” value (ENR+CD organoids; primary screen, dose 2.00 uM) was −0.084 and the “Z.CTG (standard z score)” value (ENR+CD organoids; primary screen, dose 2.00 uM) was −0.202. For the same compound, the “Dose.FC.CTG (log2 fold change)” value (ENR+CD organoids; primary screen, dose 10.00 uM) was −0.054 and the “Z.CTG (standard z score)” value (ENR+CD organoids; primary screen, dose 10.00 uM) was −0.128.

Work on `C[C@@H]1C(=O)O[C@H]2C[C@@]34[C@H]5C[C@@H](C(C)(C)C)[C@]36[C@@H](OC(=O)[C@@H]6O)O[C@@]4(C(=O)O5)[C@]21O` [Ginkgolide A] yielded a Dose.FC.LYZ.S ([1]; dose 0.08 uM) of 0.124 log2 fold change, a Dose.FC.LYZ.S ([1]; dose 0.40 uM) of 0.161 log2 fold change and a Dose.FC.LYZ.S ([1]; dose 2.00 uM) of 0.002 log2 fold change. The Dose.FC.LYZ.S ([1]; dose 10.00 uM) was −0.028 log2 fold change, the Dose.FC.LYZ.NS ([2]; primary screen, dose 0.08 uM) was 0.045 log2 fold change and the Dose.FC.LYZ.NS ([2]; primary screen, dose 0.40 uM) was 0.025 log2 fold change. For the same compound, the Dose.FC.LYZ.NS ([2]; primary screen, dose 2.00 uM) was 0.030 log2 fold change, the Dose.FC.LYZ.NS ([2]; primary screen, dose 10.00 uM) was 0.052 log2 fold change and the Z.LYZ.NS [2, 11] was 0.395. For the same compound, the Z.LYZ.NS [2, 12] was 0.222, the Z.LYZ.NS [2, 13] was 0.258 and the Z.LYZ.NS [2, 14] was 0.450. For the same compound, the Dose.FC.CTG (ENR+CD organoids; primary screen, dose 0.08 uM) was 0.005 log2 fold change, the Dose.FC.CTG (ENR+CD organoids; primary screen, dose 0.40 uM) was −0.017 log2 fold change and the Dose.FC.CTG (ENR+CD organoids; primary screen, dose 2.00 uM) was 0.040 log2 fold change. The Dose.FC.CTG (ENR+CD organoids; primary screen, dose 10.00 uM) was −0.012 log2 fold change, the Z.CTG (ENR+CD organoids; [11]) was 0.011 and the Z.CTG (ENR+CD organoids; [12]) was −0.040. For the same compound, the Z.CTG (ENR+CD organoids; [13]) was 0.095 and the Z.CTG (ENR+CD organoids; [14]) was −0.028.

`Cc1ccccc1C(C(=O)NC1CCCCC1)N(C(=O)Cn1ccnc1C)c1cccc(F)c1` (stereo not shown) [AGI-5198] was tested, and the Dose.FC.LYZ.S ([1]; dose 0.08 uM) was 0.092 log2 fold change, the Dose.FC.LYZ.S ([1]; dose 0.40 uM) was 0.185 log2 fold change and the Dose.FC.LYZ.S ([1]; dose 2.00 uM) was 0.073 log2 fold change. For the same compound, the Dose.FC.LYZ.S ([1]; dose 10.00 uM) was −0.005 log2 fold change, the Dose.FC.LYZ.NS ([2]; primary screen, dose 0.08 uM) was 0.055 log2 fold change and the “Z.LYZ.NS (standard z score)” value ([2]; primary screen, dose 0.08 uM) was 0.482. For the same compound, the Dose.FC.LYZ.NS ([2]; primary screen, dose 0.40 uM) was 0.042 log2 fold change, the “Z.LYZ.NS (standard z score)” value ([2]; primary screen, dose 0.40 uM) was 0.362 and the Dose.FC.LYZ.NS ([2]; primary screen, dose 2.00 uM) was 0.039 log2 fold change. For the same compound, the “Z.LYZ.NS (standard z score)” value ([2]; primary screen, dose 2.00 uM) was 0.342, the Dose.FC.LYZ.NS ([2]; primary screen, dose 10.00 uM) was −0.007 log2 fold change and the “Z.LYZ.NS (standard z score)” value ([2]; primary screen, dose 10.00 uM) was −0.064. For the same compound, the Dose.FC.CTG (ENR+CD organoids; primary screen, dose 0.08 uM) was 0.309 log2 fold change, the Dose.FC.CTG (ENR+CD organoids; primary screen, dose 0.40 uM) was 0.154 log2 fold change and the Dose.FC.CTG (ENR+CD organoids; primary screen, dose 2.00 uM) was 0.281 log2 fold change. For the same compound, the Dose.FC.CTG (ENR+CD organoids; primary screen, dose 10.00 uM) was 0.336 log2 fold change.
